Data set [1] relates to human umbilical vein endothelial cell (HUVEC). As to the kind of experiment: in vitro HUVEC migration assay (time-lapse imaging of scraped confluent cultures). The format is cell-based. How it is done: To examine if the compounds of the invention affect endothelial cell function, an in vitro human umbilical vein endothelial cell (HUVEC) migration assay was performed in the presence of Compound 226. HUVEC cells (ATCC, VA) (passage number 4) were cultured in EGM2 medium (Cambrex, Mass.) on 12-well plates and performed time-lapse imaging with the live cell imaging system on an inverted microscope supplied with 6-7% CO2. The temperature was kept at 37° C. Images were taken every 30 minutes using the 2× objective for up to 106 hr (results in FIGS. 1, 2 and 3), or, every 60 seconds using the 20× objective for 30 min (for FIG. 4). Confluent HUVEC cultures were scraped similarly to make a blank area, followed by culturing in HUVEC medium for 15 hr without treatment. The migration areas, which were imaged as time-lapse sequences for each well, were used as a basis to standardize/correct migration rates. Then, migration of cells under different treatments was imaged at the same time to generate time-lapse image sequences for each well. Time-lapse movies were further analyzed by measuring areas that were covered by migrating cells. […] The red lines indicate the front lines of migrating cells. DMSO (1:100) treated cells migrated rapidly and covered the entire blank (wounded) area at 106 hr. […] During experiments, HUVEC cells were activated by the presence of VEGF (Cambrex, Mass.) and basic FGF (Cambrex, Mass.).
In addition to the analysis of HUVEC cell migration, HUVEC behavior was also tracked during above treatments.

Another data set relates to HUVEC. Nature of the data set: HUVEC killing (separate reference experiment). The data set is classed as cell-based. The following applies: Homo sapiens.
Data set [2] relates to VE-cadherin junctions between HUVEC cells. Nature of the data set: immunofluorescence study of VE-cadherin junctions between HUVEC cells. The note with it: 24 hrs. The format is cell-based, human. The procedure:
An immunofluorescence study was performed by using anti-VE-cadherin antibodies (1:1 mixed, obtained from Amersham Biosciences, NJ, and Santa Cruz Biotechnology, CA) to examine VE-cadherin junctions between HUVEC cells. HUVEC cells were treated with DMSO or Compound 226 (10, 100 and 1000 nM) for 24 hrs and fixed for immunostaining. DMSO concentration was 1:100 for all treatments. To boost the immunofluorescence signal, cells were stained with a mixture of 2 polyclonal anti-human VE-cadherin Abs followed by staining with a mixture of fluorescent secondary antibodies. […] Non-DMSO treated cells gave a similar result to those with DMSO treatment (data not shown). […] This effect could result in limited motility of the cells and reducing permeability of the endothelium, thus contributing to the cell migration inhibition and the potential anti-angiogenesis effect of Compound 226.

Regarding `CC(C)c1cc(-c2nnc(O)n2-c2ccc3c(ccn3C)c2)c(O)cc1O` [Compound 226, 3-(2,4-dihydroxy-5-isopropyl-phenyl)-4-(1-methyl-indol-5-yl)-5-hydroxy-[1,2,4] triazole], in data set [1] (100 nM and 1 μM, up to 106 hr, compared to DMSO, cells activated by VEGF and basic FGF), the “migration of HUVEC cells to the blank area” value is recorded as “completely blocked migration”. Moreover, the “HUVEC cell-cell contact lines (morphology)” value in data set [1] (100 nM, 2× and 20× magnification (FIG. 4)) was “Cell-cell contact lines disappeared”. Moreover, in data set [1] (100 nM, versus DMSO treated cells), the “movement of HUVEC cells in time-lapse videos (20× objective)” value is “significantly reduced movement”. The IC50 was less than 100 nM in data set [1] (Homo sapiens, HUVEC, estimated from similar covered areas at 100 nM and 1 μM (FIG. 2), read-out: IC50 of the inhibition of HUVEC migration); roughly 800 nM with HUVEC. In addition, the HUVEC cell shrinkage result in data set [1] (after 24 hr treatment with 100 nM and 1 μM) is “began to shrink”. Further, the “cell death of HUVEC during migration assay” value in data set [1] (at 24 hr (FIG. 3)) was “no significant cell death”. The HUVEC cell survival entry in data set [1] (at 48 hr, 1 μM) is given as “majority of cells were alive”. The “VE-cadherin staining in cell-cell junction regions” value in data set [2] (10 nM, compared to DMSO) is “extremely strong”. Further, the VE-cadherin staining areas entry in data set [2] (100 nM) is reported as “further increase the VE-cadherin staining areas”. In data set [2] (1 μM), the VE-cadherin molecules distribution result is “Aggregations of VE-cadherin molecules appeared”.

Source of the values: patent publication US8188075B2, “Triazole compounds that modulate HSP90 activity” (Synta Pharmaceuticals Corp., priority 2006, dated 2012).
